Measured values taken from patent US7879870B2, “Treatment of inflammatory and ulcerative diseases of the bowel with opioid antagonists” (priority 2006, dated 2011).
Entries after “also recorded” stand apart in the source; their conditions may differ. Where a name gives a salt, the structure may show the parent alone.

Legend:
[1] = test system: patients with active Crohn's disease; assay: Open-labeled pilot trial of LDN in active Crohn's disease: CDAI score, response, remission, fistulas; type: in vivo, human
Text: In the following detailed example, low dose naltrexone, an opioid antagonist, is shown to be a safe and effective treatment for Crohn's disease. In a human clinical experiment, eligible patients were both male and female, at least eighteen years of age, and with the confirmed diagnosis of Crohn's disease by either endocopic or radiographic procedures. Patients had moderate to severely active disease as defined by a Crohn's Disease Activity Index (CDAI score) of >220 and <450. See, Best, et al., “Development of a Crohn's disease activity index. National Cooperative Crohn's Disease Study,” Gastroenterology 70, 439-44 (1976). Patients taking stable doses of aminosalicylates, immunomodulators, corticosteroids, or antibiotics were permitted to enter the study, and they were continued at the same dosage throughout the trial. Women of childbearing age were permitted to enroll and, if not surgically sterile, were required to use adequate contraception (defined as oral or depot contraceptive, IUD, or barrier plus spermicide) for the duration of the study. These women were required to continue adequate contraception for three months after the completion of the study. Exclusion criteria included women who were pregnant or breastfeeding, subjects with an ileostomy, colostomy, ileorectal anastomosis, or short bowel syndrome from surgery, and patients with abnormal liver function tests. Subjects taking tacrolimus, cyclosporine, mycophenolate, or infliximab within eight weeks of enrollment were excluded.
(§1) Eligibility was assessed by telephone, and potential candidates were scheduled for a screening visit. At the screening visit, patients were subjected to a history and physical examination and laboratory testing (chemistry panel, complete blood count [“CBC”], urinalysis, and erythrocyte sedimentation rate [“ESR”]). Patients were dispensed a seven-day diary to record symptoms of frequency of diarrhea, abdominal pain, and general well-being. Within fourteen days, patients returned for assessment and calculation of the CDAI score. Qualifying subjects were dispensed medication and given a new diary in order to calculate the subsequent month's CDAI score at the conclusion of this visit (baseline). Patients returned after two weeks for an interim visit to evaluate side effects and perform a CBC. Follow-up visits were scheduled for weeks 4, 8, 12, and 16.
Quality assurance of packaging and purity were confirmed an analytical research laboratory. Patients were treated with LDN orally each evening for three months. A monthly supply of medication was dispensed to patients. On the first visit, an additional ten-day supply of LDN was provided in the event of an appointment delay. Subjects were required to bring the vials to each appointment for counting and drug accountability; extra capsules were returned on the day of the visit and another month's supply dispensed. […]
(§2) An intent-to-treat analysis was performed in which the available data from all evaluable patients were included in the statistical analysis. The parameters of measurement (CDAI scores, laboratory values, and quality of life surveys) were analyzed by a biostatistician comparing baseline values to those obtained monthly and four weeks post-therapy. A longitudinal data analysis based upon the linear mixed-effects model was applied using PROC MIXED program (available from SAS Institute Inc., Cary, N.C.). The Bonferroni statistical method was used to adjust significance where analysis including multiple comparisons to the baseline were made. P-values for binary outcomes response and remission were calculated using the exact test for binomial proportions.

[2] = test system: patients with active Crohn's disease; assay: Open-labeled pilot trial of LDN: safety and toxicity (adverse events, body weight); type: in vivo, human
Protocol: as §1
Nonhematologic and hematologic toxicity were determined by the WHO criteria. See, Oken, et al., “Toxicity and response criteria of the Eastern Cooperative Oncology Group,” Am. J. Clin. Oncol. 5(6), 649-55 (1982).

human subjects = assay: Double-blinded placebo-controlled Phase II clinical trial, adverse events; type: in vivo; conditions: as of the date of application
[3] = test system: patients with active Crohn's disease; assay: Open-labeled pilot trial of LDN: quality of life surveys (IBDQ, SF-36 Health Survey); type: in vivo, human
Protocol: as §1
Quality assurance of packaging and purity were confirmed an analytical research laboratory. Patients were treated with LDN orally each evening for three months. A monthly supply of medication was dispensed to patients. On the first visit, an additional ten-day supply of LDN was provided in the event of an appointment delay. Subjects were required to bring the vials to each appointment for counting and drug accountability; extra capsules were returned on the day of the visit and another month's supply dispensed.
To assess quality of life, patients completed two standardized quality of life surveys, the Inflammatory Bowel Disease Questionnaire (“IBDQ”) and SF-36 Health Survey. See, Irvine, et al., “Quality of life: a valid and reliable measure of therapeutic efficacy in the treatment of inflammatory bowel disease. Canadian Crohn's Relapse Prevention Trial Study Group,” Gastroenterology 106(2), 287-96 (1994); Brazier, et al., “Validating the SF-36 health survey questionnaire: new outcome measure for primary care,” BMJ305(6846), 160-04 (1992).
as §2

[4] = one month (week 4) of LDN 4.5 mg/day
[5] = week 16, four weeks after discontinuation of LDN

## O=C1CC[C@@]2(O)[C@H]3Cc4ccc(O)c5c4[C@@]2(CCN3CC2CC2)[C@H]1O5 [LDN, Naltrexone hydrochloride]
[1]; LDN therapy, not previously responded to infliximab, hydrochloride
  Fistulas in the two subjects with fistulas: closure of the fistulas
[1]; at some point during LDN treatment
  Enrolled patients who achieved remission (fraction in words): Two-thirds
[1]; at some point during the 16-week trial
  Patients who achieved a remission: 67%
[1]; four weeks after completing therapy, hydrochloride
  CDAI scores versus baseline (in words): remained lower than baseline; also recorded: continued improvement in CDAI scores
[1]; on therapy, 4.5 mg/day, baseline mean CDAI 356±27
  CDAI scores with LDN versus baseline (in words): decreased significantly
[1]; [4]
  Patients in remission (CDAI score of 150 points or less): 29%
  Patients with response to therapy (decrease in CDAI score by 70 points): 76%
[1]; week 4 of LDN 4.5 mg/day by mouth each evening, 17 patients
  Mean CDAI score, decrease from baseline: 41%
[1]; week 8 of LDN
  Patients in remission (CDAI score of 150 points or less): 53%
  Patients with response to therapy (decrease in CDAI score by 70 points): 88%
[1]; week 8 of LDN 4.5 mg/day
  Mean CDAI score, decrease from baseline: 55%
[1]; week 12 of LDN
  Patients in remission (CDAI score of 150 points or less): 47%
  Patients with response to therapy (decrease in CDAI score by 70 points): 88%
[1]; week 12 of LDN 4.5 mg/day
  Mean CDAI score, decrease from baseline: 49%
[1]; [5]
  Mean CDAI score, less than baseline: 45%
  Patients in remission (CDAI score of 150 points or less): 33%
  Patients with response to therapy (decrease in CDAI score by 70 points): 73%
[2]; 17 patients enrolled
  Sleep disturbances, number of patients: 7 patients
  Subjects who changed timing of LDN from evening to morning due to insomnia: Five
  Unusual dreams, number of patients reporting: one
[2]; in vivo
  Dose reduction for sleep disturbances: In no instance was a dose reduction necessary
[2]; pilot study, 4.5 mg daily
  Safety profile: infrequent and minor side effects and no known suppression of immunity or increased risk of secondary infections
[2]; screening visit through week 16
  Body weight: no significant change in body weight
Human subjects
  Serious adverse events: has not revealed any serious adverse events
[3]; 4 and 8 weeks of LDN
  SF-36 physical function, greater than baseline: 23%
[3]; on LDN therapy
  Quality of life by both surveys (IBDQ and SF-36) compared to baseline: significant improvement; also recorded: improved the quality of life
[3]; week 8 of LDN
  SF-36 health perception, greater than baseline: 33%
[3]; week 12 of LDN
  SF-36 health perception, greater than baseline: 49%
[3]; weeks 4, 8 and 12, only statistically different at week 8
  SF-36 social function, greater than baseline: 70%
[3]; weeks 4, 8 and 12 of LDN
  SF-36 bodily pain, improvement: 61-65%
  SF-36 emotional health versus baseline: comparable to baseline values
  SF-36 physical role scores, improvement: 5- to 8 fold
  SF-36 role-emotional versus baseline: comparable to baseline values
[3]; weeks 4, 8 and 12 on LDN and one month after completion
  IBDQ survey, quality of life compared to baseline: significant improvement in quality of life
[3]; weeks 8 and 12 of LDN
  SF-36 energy scores, greater than at initiation of therapy: at least 2 fold
